From patent US20240342106A1, “NANOPARTICLES AND USES THEREOF FOR TREATMENT OF HUMAN IMMUNODEFICIENCY VIRUS” (UNIVERSITY OF MIAMI, priority 2021, published 2024) come the findings set out here.

Series [1] deals with microglia cells. Kind of series: ROS production assay (DCFDA) in microglia cells. Format: cell-based, Human. Particulars: 1 μM of free ARVs or NPs with respect to the loaded drug, 24 h. The method, then: ROS Production Assay in Microglia Cells: The ROS generation in the microglia cells were determined using DCFDA assay. Microglia cells were plated in the white wall coated 96-well plate with density of 20,000 cells per well and grown for 16 h. The SQV, EFV, DRV, DTG, EVG and their nanoformulations were added to the cells at concentration of 1 μM with respect to the ARTs for 24 h. After 24 h, the media was collected and used to determine IL-1β, an inflammation maker using commercially available kit. The DCFDA solution was made in media at the concentration of 100 μM. 100 μL of this solution was added to each well and cells were incubated for 30 min. […] The obtained values were normalized using BCA assay.

The test system of series [2] is microglia cells. Kind of series: Seahorse MitoStress assay. Conditions: 500 μM, 24 h.

Consider `CC(C)CN(C[C@@H](O)[C@H](Cc1ccccc1)NC(=O)O[C@H]1CO[C@H]2OCC[C@H]21)S(=O)(=O)c1ccc(N)cc1` [Darunavir], for which the ROS generation result with microglia cells [1] is on record as “increased ROS significantly”. In the case of `C[C@@H]1CCO[C@H]2Cn3cc(C(=O)NCc4ccc(F)cc4F)c(=O)c(O)c3C(=O)N12` [Dolutegravir], the ROS generation entry in the series on microglia cells [1] is “increased ROS significantly”. The same measure, in the same setting: the entry for `O=C1Nc2ccc(Cl)cc2[C@@](C#CC2CC2)(C(F)(F)F)O1` [Efavirenz] is “increased ROS significantly”. The same measure, in the same setting: under `COc1cc2c(cc1Cc1cccc(Cl)c1F)c(=O)c(C(=O)O)cn2[C@H](CO)C(C)C` [Elvitegravir] stands “increased ROS significantly”. In the case of `COC(=O)[C@H]1[C@@H](OC(=O)c2ccccc2)C[C@@H]2CC[C@H]1N2C` [cocaine], in the series with microglia cells [2], the ATP production entry is “substantially decreased”, the basal respiration entry was “substantially decreased” and the maximal respiration result is reported as “substantially decreased”. Turning to `CN[C@@H](C)Cc1ccccc1` [meth, methamphetamine], in the series on microglia cells [2], the ATP production result is “substantially decreased”, the basal respiration entry was “substantially decreased” and the maximal respiration result is “substantially decreased”.
